{"source": "patent US7160875B2", "about": "“Malonamide derivatives” (priority 2003, dated 2007)", "data": [{"target": "γ-secretase (Homo sapiens, UniProt P49768)", "assay": "in vitro γ-secretase assay (HEK293 membrane fraction, recombinant APP substrate, Abeta ELISA)", "type": "biochemical", "conditions": "γ-secretase inhibition; HEK293 membrane fraction solubilized in 0.25% CHAPSO, C-terminal 100 amino acids of human APP as substrate, Abeta detected by ELISA", "text": "The activity of test compounds can be evaluated in assays which measure the proteolytic cleavage of suitable substrates by γ-secretase activity. These can be cellular assays where e.g., a substrate of the γ-secretase is fused in its cytoplasmic domain to a transcription factor. Cells are transfected with this fusion gene and a reporter gene, e.g., firefly luciferase, which expression is enhanced by the transcription factor. Cleavage of the fused substrate by γ-secretase will lead to expression of the reporter gene which can be monitored in appropriate assays. The γ-secretase activity can also be determined in cell-free in vitro […] containing the γ-secretase complex is incubated with a suitable APP-derived substrate which is cleaved to the Abeta peptides. The amount of produced peptides can be determined with specific ELISA assays. Cell lines of neuronal origin secrete Abeta peptides which can be measured with the specific ELISA assay. Treatment with compounds which inhibit γ-secretase leads to a reduction of secreted Abeta thus providing a measure of inhibition. The in vitro assay of γ-secretase activity uses a HEK293 membrane fraction as a source of γ-secretase and a recombinant APP substrate. The latter consist of the C-terminal 100 amino acids of human APP fused to a 6× Histidin tail for purification which is expressed in E. coli in a regulatable expression vector, e.g. pEt15. This recombinant protein corresponds to the truncated APP fragment which results after […] of the extracellular domain and which constitutes the γ-secretase substrate. The assay principle is described in Li Y M et al, PNAS 97(11), 6138-6143 (2000). Hek293 cells are mechanically disrupted, and the microsomal fraction is isolated by differential centrifugation. The membranes are solubilized in detergent (0.25% CHAPSO) and incubated with the APP substrate. The Abeta peptides which are produced by γ-secretase cleavage of the substrate are detected by specific ELISA assays as described (Brockhaus M et al, Neuroreport 9(7), 1481-1486 (1998).", "units": {"IC50": "nM"}, "values": [{"compound": "5-Methyl-4-oxo-(3S)-[(2RS)-(2,2,3,3,3-pentafluoro-propylcarbamoyl)-propionylamino]-2,3,4,5-tetrahydro-benzo[b][1,4]diazepine-1-carboxylic acid cyclopropylmethyl estermalonamide [Example 106]", "IC50": 90}, {"compound": "CC(C(=O)NCC(F)(F)C(F)(F)F)C(=O)N[C@H]1CN(S(=O)(=O)C(F)(F)F)c2ccccc2N(C)C1=O", "note": "(mixture of isomers) [Example 95, (2RS)-Methyl-N-((3S)-1-methyl-2-oxo-5-trifluorromethanesulfonyl-2,3,4,5-tetrahydro-1H-benzo[b][1,4]diazepin-3-yl)-N′-(2,2,3,3,3-pentafluoro-propyl)-malonamide]", "IC50": 71}, {"compound": "CC(C(=O)NCC(F)(F)C(F)(F)F)C(=O)N[C@H]1CN(C(=O)OCC2CC2)c2ccccc2N(CC(F)(F)F)C1=O", "note": "(mixture of isomers) [Example 109, 4-Oxo-(3S)-[(2RS)-(2,2,3,3,3-pentafluoro-propylcarbamoyl)-propionylamino]-5-(2,2,2-trifluoro-ethyl)-2,3,4,5-tetrahydro-benzo[b][1,4]diazepine-1-carboxylic Acid Cyclopropylmethyl Ester]", "IC50": 48}, {"compound": "CC(C)(C(=O)NCC(F)(F)C(F)(F)F)C(=O)N[C@@H]1C(=O)Nc2ccccc2-c2ccccc21", "note": "[Example 67, 2,2-Dimethyl-N-((S)-6-oxo-6,7-dihydro-5H-dibenzo[b,d]azepin-7-yl)-N′-(2,2,3,3,3-pentafluoro-propyl)-malonamide]", "IC50": 4}]}]}
